Source: patent publication US9567327B2, “Imidazo[1,2-a]pyridine derivatives as modulators of the 5-HT2A serotonin receptor useful for the treatment of disorders related thereto” (Arena Pharmaceuticals, Inc., priority 2007, dated 2017)

Columns and labels:
normal volunteers = assay: APD125 Phase 1 trials / afternoon nap model of insomnia in normal volunteers; type: in vivo, human
Description: APD125, a potent and selective 5-HT2A serotonin receptor inverse agonist is a member of the genus disclosed in the European Patent EP1558582. […] These effects occurred at the expense of REM sleep. Sleep onset latency was not decreased by APD125.

diabetic rats = settings: cited from earlier work
[1] = target: human 5-HT2A serotonin receptor (Homo sapiens (Human), UniProt P28223); settings: 0.5 nM [125I]DOI, COS7 membranes with recombinant human 5-HT2A; read-out: IC50 DOI Binding Assay
[2] = test system: DOI-induced hypolocomotion in rats; assay: Attenuation of DOI-induced hypolocomotion in rats; type: in vivo, rat; settings: male Sprague-Dawley rats, compound 1-10 mg/kg p.o., DOI 1 mg/kg s.c.
Experimental: In this example, compounds of the invention were tested for inverse agonist activity by determining whether these compounds could attenuate DOI-induced hypolocomotion in rats in a novel environment. DOI is a potent 5-HT2A/2C receptor agonist that crosses the blood-brain barrier. The standard protocol used is described briefly below.
Male Sprague-Dawley rats weighing between 200-350 g were used for all tests. Rats were housed three to four per cage.
(R)-DOI HCl (C11H16INO2.HCl) was obtained from Sigma-Aldrich and was dissolved in 0.9% saline. Compounds of the invention were synthesized at Arena Pharmaceuticals Inc., San Diego, Calif. and were dissolved in 100% PEG400. DOI was injected s.c. in a volume of 1 mL/kg, while compounds of the invention were administered p.o. in a volume of 1 mL/kg.
The “Motor Monitor” (Hamilton-Kinder, Poway, Calif.) was used for all activity measurement. This apparatus recorded rears using infrared photobeams. […]
In determining the effects of compounds of the invention on DOI-induced hypoactivity, animals were first injected with vehicle or the compound of the invention (1-10 mg/kg) in their home cages. […] Ten minutes after DOI administration, animals were placed into the activity apparatus and rearing activity was measured for 10 min.
Results (total rears over 10 min) were analyzed by t-test. […]

[3] = test system: DOCA-salt induced hypertension in rats; settings: cited from earlier work
glaucoma patients = settings: cited from earlier work
JC virus = settings: cited from earlier work
heatstroke = settings: in vivo; cited from earlier work
[4] = test system: spontaneously hypertensive rats; settings: cited from earlier work
diabetic nephropathy = settings: patients, 24 months of treatment; cited from earlier work
rats = settings: thermal induced pain i.p., inflammatory pain intrathecal or i.p.; cited from earlier work
humans = settings: sciatica from lumbar disc herniation; cited from earlier work

COc1ccc(NC(=O)Nc2ccc(F)cc2F)cc1-c1c(Br)cnn1C [APD125]
effect on waking EEG (normal volunteers; Phase 1 trials, maximal effects at 40-80 mg): vigilance-lowering effects | microarousals, sleep stage shifts and awakenings after sleep onset (normal volunteers; afternoon nap model): decreased microarousals, the number of sleep stage shifts and number of awakenings after sleep onset | slow wave sleep and associated parameters (normal volunteers; afternoon nap model of insomnia, normal volunteers): increased slow wave sleep and associated parameters in a dose-dependent manner | sleep onset latency (normal volunteers; afternoon nap model, normal volunteers): not decreased

O=CN1CCC(C(=O)NCCN2CCC(=C3c4ccccc4C=Cc4ccccc43)CC2)CC1 [AT-1015]
correction of a 19.8% sciatic motor conduction deficit (diabetic rats): 82.6-99.7%

O=C(c1cccn2cc(-c3ccccc3)nc12)N1CCN(CCc2ccc(F)cc2)CC1 [Compound 9, (4-(4-Fluorophenethyl)piperazin-1-yl)(2-phenylimidazo[1,2-α]pyridin-8-yl)methanone]
IC50 [1]: 46 nM

O=C(c1cccn2ccnc12)N1CCN(CC(F)c2ccc(F)cc2)CC1 (stereo not drawn) [Compound 10, (4-(2-Fluoro-2-(4-fluorophenyl)ethyl)piperazin-1-yl)(imidazo[1,2-α]pyridin-8-yl)methanone]
IC50 [1]: 10 nM

O=C(c1cccn2ccnc12)N1CCN(CCc2ccccc2F)CC1 [Compound 18, (4-(2-Fluorophenethyl)piperazin-1-yl)(imidazo[1,2-α]pyridin-8-yl)methanone]
attenuation of DOI-induced hypolocomotion (total rears over 10 min) [2]: attenuated DOI-induced hypolocomotion

O=C(c1cccn2ccnc12)N1CCN(CCc2ccc(Cl)cc2Cl)CC1 [Compound 19, (4-(2,4-Dichlorophenethyl)piperazin-1-yl)(imidazo[1,2-α]pyridin-8-yl)methanone]
attenuation of DOI-induced hypolocomotion (total rears over 10 min) [2]: attenuated DOI-induced hypolocomotion

CN1CCN2c3ccccc3Cc3ccccc3C2C1 (stereo not drawn) [Mainserin]
DOCA-salt induced hypertension [3]: prevent DOCA-salt induced hypertension

O=C(c1ccc(F)cc1)C1CCN(CCn2c(=O)[nH]c3ccccc3c2=O)CC1 [ketanserin]
intra ocular pressure (IOP) (glaucoma patients): significantly lower IOP | JC virus infection of human glial cells (JC virus): inhibited JC virus infection of human glial cells | protection during heatstroke (heatstroke): protect against circulatory shocks, intracranial hypertension and cerebral ischemia during heatstroke | blood pressure [4]: stabilize blood pressure

Cc1nc2sccn2c(=O)c1CCN1CCC(=C(c2ccc(F)cc2)c2ccc(F)cc2)CC1 [ritanserin]
correction of a 19.8% sciatic motor conduction deficit (diabetic rats): 82.6-99.7% | JC virus infection of human glial cells (JC virus): inhibited JC virus infection of human glial cells

COc1cccc(CCc2ccccc2OCC(CN(C)C)OC(=O)CCC(=O)O)c1 (stereo not drawn) [sarpogrelate]
correction of a 19.8% sciatic motor conduction deficit (diabetic rats): 82.6-99.7% | urinary albumin excretion level (diabetic nephropathy): significantly reduced | intra ocular pressure (IOP) (glaucoma patients): significantly lower IOP | analgesic effect (rats): significant analgesic effect | treatment of lower back pain, leg pain and numbness (humans): effective treatment
